Test results as given in patent publication US20050208496A1, “Methods of testing for bronchial asthma or chronic obstructive pulmonary disease” (Genox Research, Inc., priority 2002, published 2005).

Test system: respiratory epithelial cells

IL-13: human IL-13 (Peprotech, Inc.) added to the medium at 50 ng/mL to stimulate respiratory epithelial cells
DD96 (31610_at) expression, fold change upon IL-13 stimulation (lot 1, Day 3, AI method): 6.3 fold | DKFZP564O0823 (41402_at) expression, fold change upon IL-13 stimulation (lot 1, Day 3, AI method): 5 fold | DKFZP566J091 (57197_at) expression fold change (lot 1, Day 3, AI method): 9.4 fold | DKFZp564N1116 (37784_at) expression, fold change upon IL-13 stimulation (lot 1, Day 3, AI method): 6.4 fold | DNAJA1 (276_at) expression fold change upon IL-13 stimulation (lot 1, Day 3, AI method): 2 fold | DPYD (38220_at) expression fold change upon IL-13 stimulation (lot 1, Day 3, AI method): 2.7 fold | EMILIN-2 (51628_at) expression fold change (lot 1, Day 3, AI method): 2.1 fold | FABP4 (38430_at) expression, fold change upon IL-13 stimulation (lot 1, Day 3, AI method): 3.8 fold | FBP1 (36495_at) expression fold change upon IL-13 stimulation (lot 1, Day 3, AI method): 3.2 fold | FETUB (32620_at) expression fold change (lot 1, Day 3, AI method): 3.7 fold | FETUB (33101_g_at) expression fold change (lot 1, Day 3, AI method): 2.2 fold | FLJ10261 (43366_at) expression fold change (lot 1, Day 3, AI method): 7.9 fold | FLJ22693 (53777_at) expression fold change (lot 1, Day 3, AI method): 2.8 fold | FUT10 (908_at) expression fold change upon IL-13 stimulation (lot 1, Day 3, AI method): 5.8 fold | G1P3 (1358_s_at) expression, fold change upon IL-13 stimulation (lot 1, Day 3, AI method): 7.1 fold | GADD45G (39154_at) expression fold change upon IL-13 stimulation (lot 1, Day 3, AI method): 3.1 fold | GBP5 (52615_at) expression fold change (lot 1, Day 3, AI method): 2.4 fold | GS3686 (36927_at) expression, fold change upon IL-13 stimulation (lot 1, Day 3, AI method): 5.7 fold | HAS3 (54604_at) expression fold change (lot 1, Day 3, AI method): 2.3 fold | HDAC9 (37483_at) expression fold change upon IL-13 stimulation (lot 1, Day 3, AI method): 4.1 fold | HLA-F (37420_i_at) expression, fold change upon IL-13 stimulation (lot 1, Day 3, AI method): 2.9 fold | HLA-F (49203_f_at) expression fold change (lot 1, Day 3, AI method): 2.4 fold | HS3ST1 (41556_s_at) expression fold change upon IL-13 stimulation (lot 1, Day 3, AI method): 3.4 fold | ICAMt (32640_at) expression fold change upon IL-13 stimulation (lot 1, Day 3, AI method): 6.5 fold | IFI27 (425_at) expression, fold change upon IL-13 stimulation (lot 1, Day 3, AI method): 3.8 fold | IFI27 (48864_at) expression fold change (lot 1, Day 3, AI method): 2.9 fold | IFI35 (464_s_at) expression, fold change upon IL-13 stimulation (lot 1, Day 3, AI method): 13.2 fold | IFI44 (37641_at) expression, fold change upon IL-13 stimulation (lot 1, Day 3, AI method): 5.9 fold | IFIT1 (915_at) expression, fold change upon IL-13 stimulation (lot 1, Day 3, AI method): 19.2 fold | IFIT1 (32814_at) expression, fold change upon IL-13 stimulation (lot 1, Day 3, AI method): 10.6 fold | IFIT4 (38584_at) expression, fold change upon IL-13 stimulation (lot 1, Day 3, AI method): 2.7 fold | IFITM1 (675_at) expression, fold change upon IL-13 stimulation (lot 1, Day 3, AI method): 10.7 fold | IL13RA2 (1016_s_at) expression fold change upon IL-13 stimulation (lot 1, Day 3, AI method): 10.2 fold | IL19 (47855_at) expression fold change (lot 1, Day 3, AI method): 4 fold | ILIRL1 (40322_at) expression, fold change upon IL-13 stimulation (lot 1, Day 3, AI method): 5.5 fold | IRF7 (36412_s_at) expression fold change (lot 1, Day 3, AI method): 4.9 fold | ISG15 (1107_s_at) expression, fold change upon IL-13 stimulation (lot 1, Day 3, AI method): 13.1 fold | ISG15 (38432_at) expression, fold change upon IL-13 stimulation (lot 1, Day 3, AI method): 23.7 fold | ISG20 (33304_at) expression, fold change upon IL-13 stimulation (lot 1, Day 3, AI method): 4.8 fold | KIAA0537 (33787_at) expression, fold change upon IL-13 stimulation (lot 1, Day 3, AI method): 7.5 fold | KIAA1268 (57050_at) expression fold change (lot 1, Day 3, AI method): 3.2 fold | KIAAI268 (59516_at) expression fold change (lot 1, Day 3, AI method): 4.1 fold | LAMP3 (37168_at) expression, fold change upon IL-13 stimulation (lot 1, Day 3, AI method): 6.3 fold | LOC57118 (51085_at) expression fold change (lot 1, Day 3, AI method): 2.4 fold | LOC64116 (40456_at) expression, fold change upon IL-13 stimulation (lot 1, Day 3, AI method): 2.2 fold | MDA5 (51920_at) expression fold change (lot 1, Day 3, AI method): 6.6 fold | MFHAS1 (50388_at) expression fold change (lot 1, Day 3, AI method): 2.3 fold | MICB (35937_at) expression, fold change upon IL-13 stimulation (lot 1, Day 3, AI method): 3.3 fold | MKP-L (38272_at) expression, fold change upon IL-13 stimulation (lot 1, Day 3, AI method): 2 fold | MMP7 (668_s_at) expression, fold change upon IL-13 stimulation (lot 1, Day 3, AI method): 2.6 fold | MX2 (879_at) expression fold change (lot 1, Day 3, AI method): 8.7 fold | MXI (37014_at) expression fold change (lot 1, Day 3, AI method): 12.3 fold | NCF2 (41038_at) expression fold change (lot 1, Day 3, AI method): 2.9 fold | NK4 (39119_s_at) expression fold change upon IL-13 stimulation (lot 1, Day 3, AI method): 4 fold | NOS2A (1948_f_at) expression fold change upon IL-13 stimulation (lot 1, Day 3, AI method): 5.3 fold | NOS2A (48918_at) expression fold change (lot 1, Day 3, AI method): 4.3 fold | OAF (39695_at) expression, fold change upon IL-13 stimulation (lot 1, Day 3, AI method): 3.4 fold | OAS1 (38388_at) expression fold change upon IL-13 stimulation (lot 1, Day 3, AI method): 6.2 fold | OAS1 (38389_at) expression fold change upon IL-13 stimulation (lot 1, Day 3, AI method): 4.5 fold | OAS2 (39263_at) expression fold change upon IL-13 stimulation (lot 1, Day 3, AI method): 5 fold | OSF-2 (1451_s_at) expression fold change upon IL-13 stimulation (lot 1, Day 3, AI method): 10.5 fold | PHKB (46459_at) expression fold change (lot 1, Day 3, AI method): 2 fold | PKD2 (38120_at) expression, fold change upon IL-13 stimulation (lot 1, Day 3, AI method): 2.8 fold | PLOD2 (34795_at) expression fold change upon IL-13 stimulation (lot 1, Day 3, AI method): 2.3 fold | PLS1 (39951_at) expression fold change (lot 1, Day 3, AI method): 2.5 fold | PLSCR1 (32775_r_at) expression fold change upon IL-13 stimulation (lot 1, Day 3, AI method): 2.9 fold | PSMB9 (38287_at) expression fold change upon IL-13 stimulation (lot 1, Day 3, AI method): 3.2 fold | RIG-1 (59215_at) expression fold change (lot 1, Day 3, AI method): 7.2 fold | SAMHD1 (34714_at) expression, fold change upon IL-13 stimulation (lot 1, Day 3, AI method): 3.4 fold | SCYB10 (431_at) expression fold change upon IL-13 stimulation (lot 1, Day 3, AI method): 5.2 fold | SCYB11 (35061_at) expression fold change upon IL-13 stimulation (lot 1, Day 3, AI method): 8.9 fold | SECTM1 (41045_at) expression, fold change upon IL-13 stimulation (lot 1, Day 3, AI method): 6.5 fold | SERPINB2 (37185_at) expression fold change (lot 1, Day 3, AI method): 2.1 fold | SERPINB4 (1549_s_at) expression fold change (lot 1, Day 3, AI method): 4.2 fold | SERPINB6 (34789_at) expression fold change (lot 1, Day 3, AI method): 2.2 fold | SIAT1 (41352_at) expression fold change upon IL-13 stimulation (lot 1, Day 3, AI method): 4.7 fold | SLC26A4, pendrin (36376_at) expression fold change (lot 1, Day 3, AI method): 18.8 fold | SSI-1 (41592_at) expression, fold change upon IL-13 stimulation (lot 1, Day 3, AI method): 5.6 fold | STAT1 (32860_g_at) expression fold change (lot 1, Day 3, AI method): 2.8 fold | STAT1 (33338_at) expression fold change (lot 1, Day 3, AI method): 9.7 fold | STAT1 (33339_g_at) expression fold change (lot 1, Day 3, AI method): 3.5 fold | TGM2 (38404_at) expression fold change upon IL-13 stimulation (lot 1, Day 3, AI method): 8.5 fold | THBS1 (115_at) expression fold change upon IL-13 stimulation (lot 1, Day 3, AI method): 10.4 fold | TSPAN-3 (38612_at) expression, fold change upon IL-13 stimulation (lot 1, Day 3, AI method): 2.2 fold | TXNRD1 (39425_at) expression fold change upon IL-13 stimulation (lot 1, Day 3, AI method): 2 fold | UBE2L6 (40505_at) expression fold change upon IL-13 stimulation (lot 1, Day 3, AI method): 3.3 fold | UFD1L (811_at) expression, fold change upon IL-13 stimulation (lot 1, Day 3, AI method): 2.3 fold | WARS (38121_at) expression fold change upon IL-13 stimulation (lot 1, Day 3, AI method): 3.5 fold | cig5 (38549_at) expression, fold change upon IL-13 stimulation (lot 1, Day 3, AI method): 10.1 fold | diubiquitin (39959_at) expression, fold change upon IL-13 stimulation (lot 1, Day 3, AI method): 21.3 fold | AA149682 (51925_at) expression fold change (lot 1, Day 3, IMM method): 2.4 fold | AA541787 (52622_at) expression fold change (lot 1, Day 3, IMM method): 2.6 fold | ADAM28 (35479_at) expression, fold change upon IL-13 stimulation (lot 1, Day 3, IMM method): 4.8 fold | AI565105 (54886_at) expression fold change (lot 1, Day 3, IMM method): 2.2 fold | AI659927 (54033_at) expression fold change (lot 1, Day 3, IMM method): 8.3 fold | AI989346 (52327_s_at) expression fold change (lot 1, Day 3, IMM method): 2.3 fold | ALOX15 (34636_at) expression, fold change upon IL-13 stimulation (lot 1, Day 3, IMM method): 69.2 fold | ARL7 (57151_at) expression fold change (lot 1, Day 3, IMM method): 3.2 fold | AW019985 (48826_s_at) expression fold change (lot 1, Day 3, IMM method): 6 fold | BAL (52167_at) expression fold change (lot 1, Day 3, IMM method): 3.6 fold | BRCA1 (626_s_at) expression fold change (lot 1, Day 3, IMM method): 7.6 fold | BST2 (39061_at) expression, fold change upon IL-13 stimulation (lot 1, Day 3, IMM method): 8.3 fold | C21orf11 (58957_at) expression fold change (lot 1, Day 3, IMM method): 6.2 fold | CDH6 (1620_at) expression fold change upon IL-13 stimulation (lot 1, Day 3, IMM method): 4.2 fold | CDH6 (57421_at) expression fold change (lot 1, Day 3, IMM method): 4.7 fold | CDH26 (46916_at) expression fold change (lot 1, Day 3, IMM method): 16 fold
